Results taken from the supplement of paper PMC10307832.

Tests used:
Experiment in all cases: relative viability (nuclei count vs DMSO), 5 days (fraction); higher = more cells survive
17-AAG + Decitabine = compound: C=CCNC1=C2C[C@@H](C)C[C@H](OC)[C@H](O)[C@@H](C)/C=C(\C)[C@H](OC(N)=O)[C@@H](OC)/C=C\C=C(/C)C(=O)NC(=CC1=O)C2=O [17-AAG] + Nc1ncn([C@H]2C[C@H](O)[C@@H](CO)O2)c(=O)n1 [Decitabine] (partner 2 µM)
Method in brief: (§1)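 Each reported value is a median over duplicate plates. It expresses relative viability: treated-well nuclei count divided by vehicle-well nuclei count. Lung cancer cell lines in 1536-well plates were dosed by pin tool a day after seeding, alone with one drug or with a fixed anchor-drug dose plus five library-drug doses (not always all listed) in √10 steps, and nuclei were counted after 5 days.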

17-AAG + Crizotinib = compound: C=CCNC1=C2C[C@@H](C)C[C@H](OC)[C@H](O)[C@@H](C)/C=C(\C)[C@H](OC(N)=O)[C@@H](OC)/C=C\C=C(/C)C(=O)NC(=CC1=O)C2=O [17-AAG] + C[C@@H](Oc1cc(-c2cnn(C3CCNCC3)c2)cnc1N)c1c(Cl)ccc(F)c1Cl [Crizotinib] (partner 1 µM)
Method in brief: as §1

17-AAG + Phenformin = compound: C=CCNC1=C2C[C@@H](C)C[C@H](OC)[C@H](O)[C@@H](C)/C=C(\C)[C@H](OC(N)=O)[C@@H](OC)/C=C\C=C(/C)C(=O)NC(=CC1=O)C2=O [17-AAG] + N=C(N)NC(=N)NCCc1ccccc1 [Phenformin] (partner 250 µM)
Method in brief: as §1

17-AAG + Navitoclax = compound: C=CCNC1=C2C[C@@H](C)C[C@H](OC)[C@H](O)[C@@H](C)/C=C(\C)[C@H](OC(N)=O)[C@@H](OC)/C=C\C=C(/C)C(=O)NC(=CC1=O)C2=O [17-AAG] + CC1(C)CCC(c2ccc(Cl)cc2)=C(CN2CCN(c3ccc(C(=O)NS(=O)(=O)c4ccc(N[C@H](CCN5CCOCC5)CSc5ccccc5)c(S(=O)(=O)C(F)(F)F)c4)cc3)CC2)C1 [Navitoclax] (partner 0.5 µM)
Method in brief: as §1

Cell Line	relative viability (17-AAG + Decitabine; first compound 0.00128 µM)	relative viability (17-AAG + Decitabine; first compound 0.004048 µM)	relative viability (17-AAG + Decitabine; first compound 0.0128 µM)	relative viability (17-AAG + Decitabine; first compound 0.04048 µM)	relative viability (17-AAG + Decitabine; first compound 0.128 µM)	relative viability (17-AAG + Crizotinib; first compound 0.00128 µM)	relative viability (17-AAG + Crizotinib; first compound 0.004048 µM)	relative viability (17-AAG + Crizotinib; first compound 0.0128 µM)	relative viability (17-AAG + Crizotinib; first compound 0.04048 µM)	relative viability (17-AAG + Crizotinib; first compound 0.128 µM)	relative viability (17-AAG + Phenformin; first compound 0.00128 µM)	relative viability (17-AAG + Phenformin; first compound 0.004048 µM)	relative viability (17-AAG + Phenformin; first compound 0.0128 µM)	relative viability (17-AAG + Phenformin; first compound 0.04048 µM)	relative viability (17-AAG + Phenformin; first compound 0.128 µM)	relative viability (17-AAG + Navitoclax; first compound 0.00128 µM)	relative viability (17-AAG + Navitoclax; first compound 0.004048 µM)	relative viability (17-AAG + Navitoclax; first compound 0.0128 µM)	relative viability (17-AAG + Navitoclax; first compound 0.04048 µM)	relative viability (17-AAG + Navitoclax; first compound 0.128 µM)
HCC-366	0.306	0.393	0.08	0.0528	0.0434	0.463	0.506	0.0283	0.018	0.0156	0.653	0.591	0.159	0.0455	0.0292	1.06	1.02	0.358	0.0314	0.0217
HCC-827	0.279	0.363	0.308		0.306	0.941	0.91	0.943		0.754	0.368	0.447	0.363		0.251	0.973	1.03	1.01		0.944
HOP-62	0.24	0.238	0.25	0.167	0.172	0.938	1.04	1.02	0.935	0.248	0.711	0.541	0.404	0.305	0.118	1.16	1.01	1.05	0.843	0.151
LC-2-ad	0.776	0.876	0.713	0.645	0.227	0.452	0.448	0.527	0.278	0.171	0.476	0.523	0.273	0.258	0.227	0.525	0.565	0.393	0.234	0.111
LCLC-97TM1	0.197	0.21	0.255	0.259	0.185	0.325	0.387	0.433	0.395	0.295	0.454	0.402	0.428	0.247	0.143	0.47	0.573	0.518	0.378	0.355
LK-2	0.269	0.37	0.187	0.0931	0.0957	0.212	0.249	0.357	0.232	0.176	0.462	0.478	0.194	0.158	0.135	1.11	0.97	0.619	0.285	0.171
LOU-NH91	0.806	0.724	0.623	0.47	0.393	0.666	0.624	0.516	0.365	0.353	0.592	0.513	0.383	0.376	0.307	0.608	0.525	0.32	0.332	0.297
LU99A	0.917	0.915	0.863	0.749	0.213	0.588	0.512	0.331	0.184	0.134	0.725	0.734	0.468	0.225	0.116	0.817	0.821	0.921	0.271	0.132
LXF-289	0.4	0.473	0.355	0.297	0.19	0.789	0.783	0.73	0.572	0.163	0.544	0.511	0.189	0.0865	0.0697	0.995	0.907	0.891	0.536	0.184
NCI-H23	0.294	0.226	0.251	0.185	0.16	0.426	0.5	0.403	0.155	0.123	0.665	0.769	0.575	0.319	0.155	0.922	0.836	0.688	0.167	0.125
NCI-H322M	0.811	0.706	0.641	0.475	0.442	0.811	0.92	0.979	0.65	0.442	0.77	0.808	0.311	0.28	0.303	1.15	1.18	1.26	0.573	0.564
NCI-H441	0.275	0.219	0.121	0.118	0.137	0.804	0.707	0.462	0.292	0.0949	0.877	0.397	0.184	0.182	0.129	0.527	0.335	0.157	0.262	0.131
NCI-H460	0.333	0.321	0.0276	0.0244	0.0254	0.685	0.521	0.0433	0.0161	0.013	0.468	0.332	0.0221	0.021	0.0236	0.986	1.08	0.0303	0.0146	0.0215
NCI-H520	0.364	0.555	0.411	0.16	0.171	0.924	0.663	0.492	0.112	0.0889	0.617	0.511	0.406	0.234	0.165	1.09	0.836	1.03	0.19	0.161
NCI-H596	1.05	0.988	0.899	0.891	0.502	0.95	0.834	1.03	0.986	0.542	0.829	0.68	0.554	0.781	0.309	1.02	0.91	0.908	0.834	0.518
NCI-H647	0.365	0.272	0.0949	0.129	0.102	1.11	0.755	0.101	0.0977	0.08	0.569	0.446	0.0903	0.103	0.103	1.23	1.01	0.11	0.104	0.0816
